{"source": "ChEMBL document CHEMBL1201862", "about": "“PubChem BioAssay data set” (2004)", "key": {"[1]": {"target": "T1, Oxysterols receptor LXR-beta (Homo sapiens, UniProt P55055)", "T1 sequence (P55055 whole entry)": "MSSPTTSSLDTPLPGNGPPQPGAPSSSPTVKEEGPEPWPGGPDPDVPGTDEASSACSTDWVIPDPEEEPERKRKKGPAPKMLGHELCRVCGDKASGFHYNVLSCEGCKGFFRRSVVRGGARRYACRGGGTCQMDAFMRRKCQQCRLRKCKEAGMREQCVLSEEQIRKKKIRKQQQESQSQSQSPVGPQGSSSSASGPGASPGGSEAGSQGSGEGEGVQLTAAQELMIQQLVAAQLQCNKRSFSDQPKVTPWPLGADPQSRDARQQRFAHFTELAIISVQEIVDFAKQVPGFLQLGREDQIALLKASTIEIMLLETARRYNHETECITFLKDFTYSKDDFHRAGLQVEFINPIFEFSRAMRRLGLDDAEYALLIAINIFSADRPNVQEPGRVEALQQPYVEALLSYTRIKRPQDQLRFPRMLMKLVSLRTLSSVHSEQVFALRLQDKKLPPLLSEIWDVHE", "type": "functional, cell-based"}, "Bcl-2-related protein A1": {"target": "T2, Bcl-2-related protein A1 (Mus musculus, UniProt Q07440)", "T2 sequence (Q07440 whole entry)": "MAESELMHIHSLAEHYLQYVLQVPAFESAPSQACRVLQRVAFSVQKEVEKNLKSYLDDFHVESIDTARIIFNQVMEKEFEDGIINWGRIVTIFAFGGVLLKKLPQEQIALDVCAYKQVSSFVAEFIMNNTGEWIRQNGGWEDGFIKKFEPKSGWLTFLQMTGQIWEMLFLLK", "type": "functional"}, "[2]": {"target": "T3, Ubiquitin-conjugating enzyme E2 N (Homo sapiens, UniProt P61088)", "T3 sequence (P61088 whole entry)": "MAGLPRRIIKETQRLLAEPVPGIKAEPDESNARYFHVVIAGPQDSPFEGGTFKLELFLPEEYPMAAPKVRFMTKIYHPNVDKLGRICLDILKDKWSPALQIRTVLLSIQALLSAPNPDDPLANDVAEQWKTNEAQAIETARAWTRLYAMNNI", "type": "functional"}, "[3]": {"target": "T3, Ubiquitin-conjugating enzyme E2 N", "type": "functional", "remark": "listed apart in the source"}, "Escherichia coli": {"tested_on": "Escherichia coli", "assay": "microbe, parasite or virus in culture"}, "[4]": {"tested_on": "Streptococcus sp. 'group A'", "assay": "growth inhibition of control SK(-) GAS strain, dose response, counter-screen for streptokinase expression inhibitor project, luminescence, kanamycin, BacTiterGlo, confirmation (AID 1900)", "type": "functional, organism-based"}, "Streptokinase A": {"target": "T4, Streptokinase A (Streptococcus pyogenes serotype M1, UniProt P10520)", "T4 sequence (P10520 whole entry)": "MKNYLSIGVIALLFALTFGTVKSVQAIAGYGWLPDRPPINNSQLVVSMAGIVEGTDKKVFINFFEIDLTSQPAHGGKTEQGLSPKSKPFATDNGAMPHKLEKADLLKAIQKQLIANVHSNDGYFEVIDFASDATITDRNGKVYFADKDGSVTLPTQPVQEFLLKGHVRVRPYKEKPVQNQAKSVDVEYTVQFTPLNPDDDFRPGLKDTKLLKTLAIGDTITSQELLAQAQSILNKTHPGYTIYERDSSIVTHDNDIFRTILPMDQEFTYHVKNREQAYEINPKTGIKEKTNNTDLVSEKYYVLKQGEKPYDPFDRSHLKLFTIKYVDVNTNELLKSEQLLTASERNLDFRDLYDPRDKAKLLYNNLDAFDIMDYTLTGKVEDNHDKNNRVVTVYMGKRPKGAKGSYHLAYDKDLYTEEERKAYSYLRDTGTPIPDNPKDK", "assay": "S. pyogenes streptokinase expression inhibitors, potency, dose response, plasminogen activation absorbance, OD405 (AID 1914);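 further: secreted streptokinase activity via plasminogen activation per viability signal from cell pellet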", "type": "functional, Streptococcus pyogenes M1 GAS"}, "[5]": {"assay": "cytotoxicity in HPDE-C7 cells, cell-based, fluorescence, HTS (AID 430)", "type": "functional", "settings": "Homo sapiens"}, "[6]": {"assay": "cytotoxicity in KRAS-transformed pancreatic duct cells, primary screen, cell-based, fluorescence, HTS (AID 431)", "type": "functional", "settings": "Homo sapiens"}, "Streptococcus": {"tested_on": "Streptococcus", "assay": "Group A Streptococcus viability loss, dose response, counter-screen for streptokinase expression inhibitor project, luminescence, BacTiterGlo (AID 1915)", "type": "functional, organism-based"}, "[7]": {"assay": "inhibitors of HIV Env-driven cell fusion, dose response, cherry-pick (AID 652057)", "type": "functional, cell-based"}, "[8]": {"assay": "CEM21 lymphoblast cell cytotoxicity, dose response, cytotoxicity control for viral fusion inhibitor project, CellTiter-Glo luminescence, cherry-picked (AID 652042)", "type": "functional, cell-based"}, "[9]": {"assay": "off-target signal loss in HeLa-CEM21 co-culture – HeLa F-luc CTL cells, cherry-picked, counter-screen for HIV-1 Env fusion inhibitor project, dose response (AID 652040);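 further: potency for signal decrease marking cytotoxic or nonspecific inhibition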", "type": "functional, cell-based"}, "[10]": {"assay": "inhibitors of clade B AD8 Env fusion, dose response, cell-based, cherry-pick (AID 652062);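 further: potency is for inhibitors of fusion seen as a drop in luminescence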", "type": "functional"}, "[11]": {"assay": "Concentration-dependent survival of SW480 colon cancer line, luminescence detection with CellTiter-Glo, half-maximal inhibitory concentration (AID 1117338)", "type": "functional"}, "[12]": {"assay": "RKO cell viability reduction, dose response, CellTiter-Glo luminescence (AID 1117322)", "type": "functional"}, "[13]": {"assay": "cytotoxicity toward HCT116 cells – cell-based, CellTiter-Glo luminescence, IC50, dose response (AID 1117332)", "type": "functional", "settings": "HCT-116"}, "[14]": {"assay": "SNU-C1 cell viability reduction, dose response, CellTiter-Glo luminescence (AID 1117323)", "type": "functional, cell-based"}, "[15]": {"assay": "cytotoxicity toward Colo320 cells – cell-based, CellTiter-Glo luminescence, IC50, dose response (AID 1117334)", "type": "functional", "settings": "COLO 320"}, "[16]": {"assay": "cytotoxicity toward HT-29 cells – cell-based, CellTiter-Glo luminescence, IC50, dose response (AID 1117330)", "type": "functional"}, "[17]": {"assay": "CellTiter-Glo luminescent dose response of DLD-1 viability loss (AID 1117352)", "type": "functional"}, "[18]": {"assay": "HCT116 cell viability decrease, GSK3B pretreatment – CellTiter-Glo, IC50, dose response (AID 1117339)", "type": "functional", "settings": "HCT-116"}, "[19]": {"assay": "A549 cell cytotoxicity, dose response, cytotoxicity control, plate reader, cherry-pick, antagonist series (AID 743412)", "type": "functional, cell-based"}, "[20]": {"assay": "MC4R antagonists, dose response, counter-screen for LGR2 antagonist project, cell-based, plate reader, cherry pick (AID 743444);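 further: transfected HEK 293 cells stimulated with alpha-MSH peptide; potency of inhibitors of the alpha-MSH evoked signal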", "type": "functional"}, "[21]": {"target": "T5, High affinity choline transporter 1 (Homo sapiens, UniProt Q9GZV3)", "T5 sequence (Q9GZV3 whole entry)": "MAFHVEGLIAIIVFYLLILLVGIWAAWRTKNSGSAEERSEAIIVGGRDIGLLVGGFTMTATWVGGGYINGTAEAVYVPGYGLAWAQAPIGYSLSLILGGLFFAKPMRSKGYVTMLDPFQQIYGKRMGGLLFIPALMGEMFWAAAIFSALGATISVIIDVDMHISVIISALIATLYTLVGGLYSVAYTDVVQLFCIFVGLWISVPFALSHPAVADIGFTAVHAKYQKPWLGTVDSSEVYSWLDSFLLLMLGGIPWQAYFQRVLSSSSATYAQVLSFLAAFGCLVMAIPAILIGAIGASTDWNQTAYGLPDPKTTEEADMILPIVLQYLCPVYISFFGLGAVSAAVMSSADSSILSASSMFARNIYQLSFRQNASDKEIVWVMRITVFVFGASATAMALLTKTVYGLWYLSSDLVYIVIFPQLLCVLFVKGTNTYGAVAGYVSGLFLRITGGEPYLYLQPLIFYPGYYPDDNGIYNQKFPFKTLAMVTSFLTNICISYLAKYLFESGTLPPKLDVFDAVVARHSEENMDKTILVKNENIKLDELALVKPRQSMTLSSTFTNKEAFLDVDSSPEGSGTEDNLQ", "assay": "CHT inhibitors, dose response, cell-based, 5-point CRC, membrane potential dye (AID 504840)", "type": "functional"}}, "note": "The source made the active and inactive calls.", "data": [{"smiles": "CCc1ccc(C2CC(c3ccco3)=NN2S(C)(=O)=O)cc1", "note": "(centres undefined)", "values": [{"measurement": "EC50", "setting": "[1]", "result": "> 67.5 µM (inactive)"}]}, {"smiles": "CC(C)c1ccc(NC(=O)C[n+]2ccn(C3=C([O-])c4ccccc4C3=O)c2)cc1", "values": [{"measurement": "IC50", "setting": "Bcl-2-related protein A1", "result": "> 20 µM (inactive)"}, {"measurement": "IC50", "setting": "[2]", "result": "11.8 µM (active)"}, {"measurement": "IC50", "setting": "[3]", "result": "17.8 µM (active)"}]}, {"smiles": "Cc1ccc(NC(=O)COC(=O)CCC(=O)c2cccs2)c(C)c1", "values": [{"measurement": "AC50", "setting": "Escherichia coli", "result": "> 150 µM (inactive)"}]}, {"smiles": "COc1ccc(CCN=C(N)NS(=O)(=O)c2cccs2)cc1", "values": [{"measurement": "AC50", "setting": "Escherichia coli", "result": "112 µM (active)"}]}, {"smiles": "CCCOC(=O)c1ccc(Oc2c(C)n[nH]c2-c2ccc(OC)cc2O)cc1", "values": [{"measurement": "EC50", "setting": "[4]", "result": "14.1 µM (active)"}, {"measurement": "EC50", "setting": "Streptokinase A", "result": "> 150 µM (not active)"}, {"measurement": "EC50", "setting": "[5]", "result": "12.2 µM (active)"}, {"measurement": "EC50", "setting": "[6]", "result": "6.36 µM (active)"}, {"measurement": "EC50", "setting": "Streptococcus", "result": "28.5 µM (active)"}]}, {"smiles": "C#CCOCCOCCOCCNc1nc(N2CCN(C(=O)[C@H](CCCCN)n3cc(CN)nn3)CC2)nc(N2CCN(C(=O)[C@H](CCCN=C(N)N)n3cc(C(N)[C@H](C)CC)nn3)CC2)n1", "note": "(some centres undefined)", "values": [{"measurement": "IC50", "setting": "Bcl-2-related protein A1", "result": "> 20 µM (inactive)"}, {"measurement": "IC50", "setting": "[2]", "result": "12 µM (active)"}, {"measurement": "IC50", "setting": "[3]", "result": "7.94 µM (active)"}]}, {"smiles": "O=C(C1CC(=O)N(C2CCCC2)C1)N1CCN(c2ccc(F)cc2)CC1", "note": "(centres undefined)", "values": [{"measurement": "AC50", "setting": "Escherichia coli", "result": "31.8 µM (active)"}]}, {"smiles": "c1ccc(Cc2cnc(N3CCN(Cc4csc5ccccc45)CC3)nc2)cc1", "values": [{"measurement": "AC50", "setting": "[7]", "result": "2.86 µM (active)"}, {"measurement": "AC50", "setting": "[8]", "result": "47.5 µM (active)"}, {"measurement": "AC50", "setting": "[9]", "result": "65 µM (active)"}, {"measurement": "AC50", "setting": "[10]", "result": "2.98 µM (active)"}]}, {"smiles": "C=CC(C)(O)CCC=C(C)CCC=C(C)C", "note": "(centres undefined)", "values": [{"measurement": "IC50", "setting": "[11]", "result": "> 20 µM (inactive)"}, {"measurement": "IC50", "setting": "[12]", "result": "> 20 µM (inactive)"}, {"measurement": "IC50", "setting": "[13]", "result": "> 20 µM (inactive)"}, {"measurement": "IC50", "setting": "[14]", "result": "> 20 µM (inactive)"}, {"measurement": "IC50", "setting": "[15]", "result": "10.3 µM (inactive)"}, {"measurement": "IC50", "setting": "[16]", "result": "> 20 µM (inactive)"}, {"measurement": "IC50", "setting": "[17]", "result": "> 20 µM (inactive)"}, {"measurement": "IC50", "setting": "[18]", "result": "> 20 µM (inactive)"}]}, {"smiles": "COc1ccc(S(=O)(=O)Nc2ccc3c(c2)C(=O)N([C@@H](C)CO)C[C@@H](C)[C@H](CN(C)C(=O)Nc2cccc4ccccc24)OCCCC[C@H](C)O3)cc1", "values": [{"measurement": "AC50", "setting": "[19]", "result": "> 52 µM (inactive)"}, {"measurement": "AC50", "setting": "[20]", "result": "2.05 µM (active)"}]}, {"smiles": "CC/C(=N\\NC(=O)c1ccoc1C)c1ccc(C)o1", "values": [{"measurement": "EC50", "setting": "[1]", "result": "> 67.5 µM (inactive)"}]}, {"smiles": "O=C(N/N=C/c1ccsc1)c1c[nH]c2ccccc12", "values": [{"measurement": "IC50", "setting": "[21]", "result": "3.8 µM (active)"}]}, {"smiles": "COc1ccccc1NC(=O)c1c(/N=C/c2ccccc2O)cnn1C", "values": [{"measurement": "IC50", "setting": "Bcl-2-related protein A1", "result": "> 20 µM (inactive)"}, {"measurement": "IC50", "setting": "[2]", "result": "10.5 µM (active)"}, {"measurement": "IC50", "setting": "[3]", "result": "10.4 µM (active)"}]}]}
